Assay results: ChEMBL document CHEMBL3885881, “DrugMatrix”

Species: Rattus norvegicus
Test: DrugMatrix - Regimen: Daily Repeat
Assay type: toxicity, organism-based, Sprague-Dawley
Parameters: regimen Daily Repeat, gender Male, age 6-8 weeks
Conditions: in vivo, po, route oral GAVAGE, vehicle .5 % CMC; for ABSOLUTE BASOPHIL / ABSOLUTE EOSINOPHIL / ABSOLUTE LYMPHOCYTE / ABSOLUTE MONOCYTE / ABSOLUTE SEGMENTED NEUTROPHIL / BASOPHIL / EOSINOPHIL / ERYTHROCYTE COUNT / HEMATOCRIT / HEMOGLOBIN / LEUKOCYTE COUNT / LYMPHOCYTE / MEAN CORPUSCULAR HEMOGLOBIN / MEAN CORPUSCULAR HEMOGLOBIN CONCENTRATION / MEAN CORPUSCULAR VOLUME / MONOCYTE / NEUTROPHIL / NUCLEATED RED BLOOD CELLS / PLATELET COUNT: tissue Blood; for ALANINE AMINOTRANSFERASE / ALBUMIN / ALKALINE PHOSPHATASE / ASPARTATE AMINOTRANSFERASE / BLOOD UREA NITROGEN / CARBON DIOXIDE / CHLORIDE / CHOLESTEROL / CREATINE PHOSPHOKINASE / CREATININE / GLUCOSE / LACTATE DEHYDROGENASE / LIPASE / PHOSPHORUS / POTASSIUM / SODIUM / TOTAL BILIRUBIN / TOTAL PROTEIN / URIC ACID: tissue Plasma
[1] = 50 mg/kg, 120 h, dose level Low, time 5 day
[2] = 1500 mg/kg, 72 h, dose level High, time 3 day
[3] = 1500 mg/kg, 120 h, dose level High, time 5 day

CNC(=C[N+](=O)[O-])NCCSCc1ccc(CN(C)C)o1 [RANITIDINE]
ABSOLUTE BASOPHIL [1]: 0 CELLS/uL | ABSOLUTE EOSINOPHIL [1]: 64.67 CELLS/uL | ABSOLUTE LYMPHOCYTE [1]: 14230.33 CELLS/uL | ABSOLUTE MONOCYTE [1]: 0 CELLS/uL | ABSOLUTE SEGMENTED NEUTROPHIL [1]: 1138.33 CELLS/uL | BASOPHIL [1]: 0% | EOSINOPHIL [1]: 0.33% | ERYTHROCYTE COUNT [1]: 5.36 x10E6/uL | HEMATOCRIT [1]: 34.53% | HEMOGLOBIN [1]: 13.67 G/DL | LEUKOCYTE COUNT [1]: 15.43 x10E3/uL | LYMPHOCYTE [1]: 92.67% | MEAN CORPUSCULAR HEMOGLOBIN [1]: 25.53 pg | MEAN CORPUSCULAR HEMOGLOBIN CONCENTRATION [1]: 39.6 G/DL | MEAN CORPUSCULAR VOLUME [1]: 64.47 fL | MONOCYTE [1]: 0% | NEUTROPHIL [1]: 7% | NUCLEATED RED BLOOD CELLS [1]: 0 /100WBC | PLATELET COUNT [1]: 1360.67 x10E3/uL | ALANINE AMINOTRANSFERASE [1]: 42 u/L | ALBUMIN [1]: 4.17 G/DL | ALKALINE PHOSPHATASE [1]: 395 u/L | ASPARTATE AMINOTRANSFERASE [1]: 70.33 u/L | BLOOD UREA NITROGEN [1]: 17 mg/dL | CARBON DIOXIDE [1]: 28 mmol/L | CHLORIDE [1]: 102 MEQ/L | CHOLESTEROL [1]: 50.33 mg/dL | CREATINE PHOSPHOKINASE [1]: 245.67 u/L | CREATININE [1]: 0.19 mg/dL | GLUCOSE [1]: 148 mg/dL | LACTATE DEHYDROGENASE [1]: 98 u/L | LIPASE [1]: 8.67 u/L | PHOSPHORUS [1]: 12.1 mg/dL | POTASSIUM [1]: 6.46 MEQ/L | SODIUM [1]: 145.6 MEQ/L | TOTAL BILIRUBIN [1]: 0.2 mg/dL | TOTAL PROTEIN [1]: 6 G/DL | URIC ACID [1]: 1.33 mg/dL | ABSOLUTE BASOPHIL [2]: 0 CELLS/uL | ABSOLUTE EOSINOPHIL [2]: 49.67 CELLS/uL | ABSOLUTE LYMPHOCYTE [2]: 15225.67 CELLS/uL | ABSOLUTE MONOCYTE [2]: 162.67 CELLS/uL | ABSOLUTE SEGMENTED NEUTROPHIL [2]: 1162 CELLS/uL | BASOPHIL [2]: 0% | EOSINOPHIL [2]: 0.33% | ERYTHROCYTE COUNT [2]: 5.61 x10E6/uL | HEMATOCRIT [2]: 35.4% | HEMOGLOBIN [2]: 14 G/DL | LEUKOCYTE COUNT [2]: 16.6 x10E3/uL | LYMPHOCYTE [2]: 91.67% | MEAN CORPUSCULAR HEMOGLOBIN [2]: 24.97 pg | MEAN CORPUSCULAR HEMOGLOBIN CONCENTRATION [2]: 39.57 G/DL | MEAN CORPUSCULAR VOLUME [2]: 63.03 fL | MONOCYTE [2]: 1% | NEUTROPHIL [2]: 7% | NUCLEATED RED BLOOD CELLS [2]: 0.33 /100WBC | PLATELET COUNT [2]: 1234.33 x10E3/uL | ALANINE AMINOTRANSFERASE [2]: 53 u/L | ALBUMIN [2]: 4.17 G/DL | ALKALINE PHOSPHATASE [2]: 349.67 u/L | ASPARTATE AMINOTRANSFERASE [2]: 86.67 u/L | BLOOD UREA NITROGEN [2]: 14.67 mg/dL | CARBON DIOXIDE [2]: 31 mmol/L | CHLORIDE [2]: 101.33 MEQ/L | CHOLESTEROL [2]: 68 mg/dL | CREATINE PHOSPHOKINASE [2]: 268.67 u/L | CREATININE [2]: 0.18 mg/dL | GLUCOSE [2]: 146 mg/dL | LACTATE DEHYDROGENASE [2]: 319.67 u/L | LIPASE [2]: 9.33 u/L | PHOSPHORUS [2]: 12.6 mg/dL | POTASSIUM [2]: 7.13 MEQ/L | SODIUM [2]: 145.5 MEQ/L | TOTAL BILIRUBIN [2]: 0.17 mg/dL | TOTAL PROTEIN [2]: 5.6 G/DL | URIC ACID [2]: 1.37 mg/dL | ABSOLUTE BASOPHIL [3]: 0 CELLS/uL | ABSOLUTE EOSINOPHIL [3]: 61.33 CELLS/uL | ABSOLUTE LYMPHOCYTE [3]: 16689.33 CELLS/uL | ABSOLUTE MONOCYTE [3]: 42 CELLS/uL | ABSOLUTE SEGMENTED NEUTROPHIL [3]: 1274 CELLS/uL | BASOPHIL [3]: 0% | EOSINOPHIL [3]: 0.33% | ERYTHROCYTE COUNT [3]: 6.18 x10E6/uL | HEMATOCRIT [3]: 38.9% | HEMOGLOBIN [3]: 15.3 G/DL | LEUKOCYTE COUNT [3]: 18.07 x10E3/uL | LYMPHOCYTE [3]: 92.67% | MEAN CORPUSCULAR HEMOGLOBIN [3]: 24.8 pg | MEAN CORPUSCULAR HEMOGLOBIN CONCENTRATION [3]: 39.33 G/DL | MEAN CORPUSCULAR VOLUME [3]: 63.03 fL | MONOCYTE [3]: 0.33% | NEUTROPHIL [3]: 6.67% | NUCLEATED RED BLOOD CELLS [3]: 0 /100WBC | PLATELET COUNT [3]: 1282 x10E3/uL | ALANINE AMINOTRANSFERASE [3]: 57.33 u/L | ALBUMIN [3]: 4.27 G/DL | ALKALINE PHOSPHATASE [3]: 392.67 u/L | ASPARTATE AMINOTRANSFERASE [3]: 93.67 u/L | BLOOD UREA NITROGEN [3]: 15.67 mg/dL | CARBON DIOXIDE [3]: 21.33 mmol/L | CHLORIDE [3]: 100.33 MEQ/L | CHOLESTEROL [3]: 69.67 mg/dL | CREATINE PHOSPHOKINASE [3]: 330.33 u/L | CREATININE [3]: 0.23 mg/dL | GLUCOSE [3]: 154 mg/dL | LACTATE DEHYDROGENASE [3]: 426.67 u/L | LIPASE [3]: 10 u/L | PHOSPHORUS [3]: 12.5 mg/dL | POTASSIUM [3]: 6.43 MEQ/L | SODIUM [3]: 144.53 MEQ/L | TOTAL BILIRUBIN [3]: 0.23 mg/dL | TOTAL PROTEIN [3]: 6.27 G/DL | URIC ACID [3]: 2.73 mg/dL
